Measured values taken from PubChem BioAssay (NCI).
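48-hour exposure; five concentrations; linearly interpolated endpoints. At the GI50, growth is halved. TGI: total growth inhibition.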

Tests used:
Test in all cases: growth of human tumour cells (NCI), 48 h; in the data active = GI50 below about 0.43 µM; inactive = the rest
SF-295 CNS = system: SF-295 CNS
TK-10 renal = system: TK-10 renal
BT-549 breast = system: BT-549 breast
SNB-19 CNS = system: SNB-19 CNS
SR leukemia = system: SR leukemia
UO-31 renal = system: UO-31 renal
ACHN renal = system: ACHN renal
OVCAR-8 ovarian = system: OVCAR-8 ovarian
HOP-62 NSCLC = system: HOP-62 NSCLC
MALME-3M melanoma = system: MALME-3M melanoma
OVCAR-3 ovarian = system: OVCAR-3 ovarian
RXF 393 renal = system: RXF 393 renal
OVCAR-5 ovarian = system: OVCAR-5 ovarian
SN12C renal = system: SN12C renal
NCI-H522 lung = system: NCI-H522 lung
MDA-MB-231 breast = system: MDA-MB-231 breast
COLO 205 colon = system: COLO 205 colon
PC-3 prostate = system: PC-3 prostate
NCI-H23 lung = system: NCI-H23 lung
RPMI-8226 leukemia = system: RPMI-8226 leukemia
KM12 colon = system: KM12 colon
HL-60(TB) leukemia = system: HL-60(TB) leukemia
NCI-H226 lung = system: NCI-H226 lung
HS 578T breast = system: HS 578T breast
MDA-MB-435 = system: MDA-MB-435
K-562 leukemia = system: K-562 leukemia
NCI/ADR-RES ovarian = system: NCI/ADR-RES ovarian
IGROV1 ovarian = system: IGROV1 ovarian
SNB-75 CNS = system: SNB-75 CNS
HOP-92 NSCLC = system: HOP-92 NSCLC
SK-OV-3 ovarian = system: SK-OV-3 ovarian
SW-620 colon = system: SW-620 colon
A549 NSCLC = system: A549 NSCLC
SK-MEL-28 melanoma = system: SK-MEL-28 melanoma
UACC-62 melanoma = system: UACC-62 melanoma
OVCAR-4 ovarian = system: OVCAR-4 ovarian
NCI-H460 lung = system: NCI-H460 lung
LOX IMVI melanoma = system: LOX IMVI melanoma
DU-145 prostate = system: DU-145 prostate
SK-MEL-2 melanoma = system: SK-MEL-2 melanoma
M14 melanoma = system: M14 melanoma
SK-MEL-5 melanoma = system: SK-MEL-5 melanoma
HCT-116 colon = system: HCT-116 colon
UACC-257 melanoma = system: UACC-257 melanoma
U251 CNS = system: U251 CNS
T-47D breast = system: T-47D breast
SF-539 CNS = system: SF-539 CNS
HCT-15 colon = system: HCT-15 colon
HT29 colon = system: HT29 colon
A498 renal = system: A498 renal
HCC-2998 colon = system: HCC-2998 colon
CCRF-CEM leukemia = system: CCRF-CEM leukemia
SF-268 CNS = system: SF-268 CNS
786-0 renal = system: 786-0 renal
MCF7 breast = system: MCF7 breast
MOLT-4 leukemia = system: MOLT-4 leukemia
EKVX NSCLC = system: EKVX NSCLC

CCCCCCCCCCCCCCCC(=O)Nc1ccn([C@@H]2O[C@H](CO)[C@@H](O)[C@@H]2C#N)c(=O)n1
> 83.6 µM: TGI (M14 melanoma)
> 84.5 µM: TGI (NCI-H23 lung)
26.2 µM: TGI (MOLT-4 leukemia)
24.5 µM: TGI (NCI-H460 lung)
60.4 µM: TGI (MALME-3M melanoma)
> 80.6 µM: TGI (HCT-116 colon)
inactive: GI50 (SF-295 CNS) 21.5 µM | GI50 (TK-10 renal) > 100 µM | GI50 (BT-549 breast) 34.9 µM | GI50 (SNB-19 CNS) 6.02 µM | GI50 (SR leukemia) 8.01 µM | GI50 (UO-31 renal) 14.5 µM | GI50 (ACHN renal) 8.76 µM | GI50 (OVCAR-8 ovarian) 15.4 µM | GI50 (HOP-62 NSCLC) 20.5 µM | GI50 (MALME-3M melanoma) 17.3 µM | GI50 (OVCAR-3 ovarian) > 100 µM | GI50 (RXF 393 renal) > 77.9 µM | GI50 (OVCAR-5 ovarian) 51.6 µM | GI50 (SN12C renal) 29.7 µM | GI50 (NCI-H522 lung) 13.1 µM | GI50 (MDA-MB-231 breast) 25.9 µM | GI50 (COLO 205 colon) 17.6 µM | GI50 (PC-3 prostate) 35.9 µM | GI50 (NCI-H23 lung) 12 µM | GI50 (RPMI-8226 leukemia) 49.8 µM | GI50 (KM12 colon) 33.7 µM | GI50 (HL-60(TB) leukemia) 21.1 µM | GI50 (NCI-H226 lung) 30.7 µM | GI50 (HS 578T breast) > 100 µM | GI50 (MDA-MB-435) 39.5 µM | GI50 (K-562 leukemia) 14.6 µM | GI50 (NCI/ADR-RES ovarian) 18.4 µM | GI50 (IGROV1 ovarian) 33.9 µM | GI50 (SNB-75 CNS) > 58.6 µM | GI50 (HOP-92 NSCLC) 5.52 µM | GI50 (SK-OV-3 ovarian) 45.6 µM | GI50 (SW-620 colon) 26.7 µM | GI50 (A549 NSCLC) 11.7 µM | GI50 (SK-MEL-28 melanoma) 33.1 µM | GI50 (UACC-62 melanoma) 17.2 µM | GI50 (OVCAR-4 ovarian) 36.4 µM | GI50 (NCI-H460 lung) 2380 nM | GI50 (LOX IMVI melanoma) 10.2 µM | GI50 (DU-145 prostate) 9.03 µM | GI50 (SK-MEL-2 melanoma) 42.3 µM | GI50 (M14 melanoma) 11.8 µM | GI50 (SK-MEL-5 melanoma) 15.2 µM | GI50 (HCT-116 colon) 4.77 µM | GI50 (UACC-257 melanoma) 46.3 µM | GI50 (U251 CNS) 20.8 µM | GI50 (T-47D breast) 33.2 µM | GI50 (SF-539 CNS) > 100 µM | GI50 (HCT-15 colon) 50.8 µM | GI50 (HT29 colon) 35.8 µM | GI50 (A498 renal) > 82 µM | GI50 (HCC-2998 colon) 14.5 µM | GI50 (SF-268 CNS) 30.4 µM | GI50 (786-0 renal) 10.1 µM | GI50 (MCF7 breast) 3.29 µM | GI50 (EKVX NSCLC) > 52.7 µM
37.9 µM: TGI (LOX IMVI melanoma)
> 96.4 µM: TGI (MDA-MB-231 breast)
30 µM: TGI (MCF7 breast)
> 88.7 µM: TGI (T-47D breast)
> 52.4 µM: TGI (K-562 leukemia)
28.8 µM: TGI (SK-MEL-5 melanoma)
30.3 µM: TGI (A549 NSCLC)
98.1 µM: TGI (SR leukemia)
> 100 µM: TGI (SF-295 CNS) | TGI (TK-10 renal) | TGI (BT-549 breast) | TGI (SNB-19 CNS) | TGI (UO-31 renal) | TGI (ACHN renal) | TGI (OVCAR-8 ovarian) | TGI (HOP-62 NSCLC) | TGI (OVCAR-3 ovarian) | TGI (RXF 393 renal) | TGI (OVCAR-5 ovarian) | TGI (SN12C renal) | TGI (COLO 205 colon) | TGI (PC-3 prostate) | TGI (RPMI-8226 leukemia) | TGI (KM12 colon) | TGI (HL-60(TB) leukemia) | TGI (NCI-H226 lung) | TGI (HS 578T breast) | TGI (MDA-MB-435) | TGI (NCI/ADR-RES ovarian) | TGI (IGROV1 ovarian) | TGI (SNB-75 CNS) | TGI (HOP-92 NSCLC) | TGI (SK-OV-3 ovarian) | TGI (SW-620 colon) | TGI (SK-MEL-28 melanoma) | TGI (UACC-62 melanoma) | TGI (OVCAR-4 ovarian) | TGI (DU-145 prostate) | TGI (SK-MEL-2 melanoma) | TGI (UACC-257 melanoma) | TGI (U251 CNS) | TGI (SF-539 CNS) | TGI (HCT-15 colon) | TGI (HT29 colon) | TGI (A498 renal) | TGI (HCC-2998 colon) | TGI (CCRF-CEM leukemia) | TGI (SF-268 CNS) | TGI (786-0 renal) | TGI (EKVX NSCLC)
33.3 µM: TGI (NCI-H522 lung)
